The target of this test is CB1 receptors (Rattus norvegicus, UniProt P20272). The experiment in a line: Inhibition of [3H]SR141716 binding in homogenates of rat cerebellum. The note with it: [3H]SR141716 radioligand.
Chain of CB1 receptors (P20272 whole entry): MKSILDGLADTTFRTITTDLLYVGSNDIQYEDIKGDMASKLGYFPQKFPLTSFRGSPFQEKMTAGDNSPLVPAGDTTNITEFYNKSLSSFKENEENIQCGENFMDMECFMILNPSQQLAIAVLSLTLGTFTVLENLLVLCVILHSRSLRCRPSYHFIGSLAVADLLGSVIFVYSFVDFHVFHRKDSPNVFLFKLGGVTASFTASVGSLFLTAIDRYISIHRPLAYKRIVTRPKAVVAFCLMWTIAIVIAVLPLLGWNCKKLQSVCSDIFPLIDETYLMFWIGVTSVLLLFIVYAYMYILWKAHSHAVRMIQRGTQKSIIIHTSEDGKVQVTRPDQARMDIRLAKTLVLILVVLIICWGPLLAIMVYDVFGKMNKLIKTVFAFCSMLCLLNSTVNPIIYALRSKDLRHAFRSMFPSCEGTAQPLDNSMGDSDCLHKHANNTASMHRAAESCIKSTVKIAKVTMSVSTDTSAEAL
Regarding `O=C(NN1CCCCC1)c1nnn(-c2ccc(Cl)cc2)c1-c1ccc(Cl)cc1` [Compound 9], the “binding affinity at CB1 receptors (in words)” value (from here on “binding affinity”) is “low affinity”.

With `Clc1ccc(-c2cnnn2-c2ccc(Cl)cc2Cl)cc1` [Compound 7b], the “binding affinity” value is recorded as “low affinity”.

Take `Clc1ccc(-c2cnnn2-c2ccc(Cl)cc2)cc1` [Compound 7a]: the “binding affinity” value is on record as “low affinity”.

With `O=C(OCc1ccccc1)c1nnn(-c2ccc(Cl)cc2Cl)c1-c1ccc(Cl)cc1` [Compound 15], the “binding affinity” value was “somewhat diminished”.
